Experimental data reported in ChEMBL document CHEMBL5653631, “A Potent and Selective ULK1 Inhibitor Suppresses Autophagy and Sensitizes Cancer Cells to Nutrient Stress” (iScience, 2018).
Values belong to the molecule of their own block, whether it stands above or below them.

Assays:
[1] = molecular target: Cyclin-dependent kinase 7 (Homo sapiens) (UniProt P50613); assay: Inhibition of human recombinant CDK7 at 500 nM in presence of ATP by radiometric assay relative to control
[2] = molecular target: Serine/threonine-protein kinase MARK1 (Homo sapiens) (UniProt Q9P0L2); assay: Inhibition of human recombinant MARK1 at 500 nM related to control ULK1
Homo sapiens = species on record: Homo sapiens; assay: Inhibition of human recombinant p70S6K at 500 nM in presence of ATP by radiometric assay relative to control
[3] = molecular target: Calcium/calmodulin-dependent protein kinase kinase 2 (Homo sapiens) (UniProt Q96RR4); assay: Inhibition of human recombinant CaMKK2 at 500 nM in presence of ATP by radiometric assay relative to control
[4] = molecular target: Serine/threonine-protein kinase pim-2 (Homo sapiens) (UniProt Q9P1W9); assay: Inhibition of human recombinant PIM2 at 15 nM related to control ULK1
[5] = molecular target: Dual specificity protein kinase CLK2 (Homo sapiens) (UniProt P49760); assay: Inhibition of human recombinant CLK2 at 15 nM related to control ULK1
[6] = molecular target: T1, Serine/threonine-protein kinase DCLK2 (Homo sapiens) (UniProt Q8N568); assay: Inhibition of human recombinant DCAMKL2 at 15 nM in presence of ATP by radiometric assay relative to control
T1 sequence (whole entry): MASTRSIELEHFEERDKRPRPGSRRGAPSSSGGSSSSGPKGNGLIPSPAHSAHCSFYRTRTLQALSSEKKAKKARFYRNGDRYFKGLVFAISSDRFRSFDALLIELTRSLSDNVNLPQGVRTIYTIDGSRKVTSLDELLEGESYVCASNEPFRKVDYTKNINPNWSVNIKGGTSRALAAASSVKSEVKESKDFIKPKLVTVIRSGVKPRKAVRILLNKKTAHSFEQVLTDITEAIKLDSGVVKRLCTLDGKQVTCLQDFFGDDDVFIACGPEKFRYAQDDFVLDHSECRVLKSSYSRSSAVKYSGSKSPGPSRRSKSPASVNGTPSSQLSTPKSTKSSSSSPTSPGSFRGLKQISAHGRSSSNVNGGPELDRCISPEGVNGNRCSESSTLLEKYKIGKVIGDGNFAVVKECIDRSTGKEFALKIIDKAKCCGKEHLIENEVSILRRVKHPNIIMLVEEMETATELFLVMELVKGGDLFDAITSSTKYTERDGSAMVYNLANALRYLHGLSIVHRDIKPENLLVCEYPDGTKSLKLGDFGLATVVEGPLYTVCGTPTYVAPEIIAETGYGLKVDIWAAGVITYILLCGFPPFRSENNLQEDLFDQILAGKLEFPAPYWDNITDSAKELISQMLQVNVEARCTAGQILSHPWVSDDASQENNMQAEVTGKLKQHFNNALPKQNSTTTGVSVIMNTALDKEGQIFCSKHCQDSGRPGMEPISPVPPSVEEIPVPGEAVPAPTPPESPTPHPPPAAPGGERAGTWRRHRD

[7] = molecular target: T2, Inhibitor of nuclear factor kappa-B kinase subunit epsilon (Homo sapiens) (UniProt Q14164); assay: Inhibition of human recombinant IKKe at 15 nM in presence of ATP by radiometric assay relative to control
T2 sequence (whole entry): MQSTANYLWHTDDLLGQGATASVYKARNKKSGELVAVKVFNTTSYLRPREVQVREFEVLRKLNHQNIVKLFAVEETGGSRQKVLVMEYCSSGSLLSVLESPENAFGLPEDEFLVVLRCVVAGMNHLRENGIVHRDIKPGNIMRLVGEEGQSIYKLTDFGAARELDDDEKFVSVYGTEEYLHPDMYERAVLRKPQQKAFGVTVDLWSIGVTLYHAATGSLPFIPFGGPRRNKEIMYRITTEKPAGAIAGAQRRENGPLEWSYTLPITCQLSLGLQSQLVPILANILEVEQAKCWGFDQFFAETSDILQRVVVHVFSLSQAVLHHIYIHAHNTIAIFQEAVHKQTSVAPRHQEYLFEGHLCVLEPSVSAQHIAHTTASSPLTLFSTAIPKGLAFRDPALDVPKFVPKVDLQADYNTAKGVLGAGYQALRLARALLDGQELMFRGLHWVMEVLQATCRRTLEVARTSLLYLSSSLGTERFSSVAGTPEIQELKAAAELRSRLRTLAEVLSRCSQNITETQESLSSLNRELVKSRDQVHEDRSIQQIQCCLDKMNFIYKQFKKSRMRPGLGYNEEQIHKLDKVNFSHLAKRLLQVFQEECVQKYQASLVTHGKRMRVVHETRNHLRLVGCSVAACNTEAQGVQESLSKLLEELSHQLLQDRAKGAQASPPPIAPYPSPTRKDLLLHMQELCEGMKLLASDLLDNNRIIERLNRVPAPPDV

[8] = molecular target: T3, Serine/threonine-protein kinase Sgk3 (Homo sapiens) (UniProt Q96BR1); assay: Inhibition of human recombinant SGK3 at 40 nM related to control ULK1
T3 sequence (whole entry): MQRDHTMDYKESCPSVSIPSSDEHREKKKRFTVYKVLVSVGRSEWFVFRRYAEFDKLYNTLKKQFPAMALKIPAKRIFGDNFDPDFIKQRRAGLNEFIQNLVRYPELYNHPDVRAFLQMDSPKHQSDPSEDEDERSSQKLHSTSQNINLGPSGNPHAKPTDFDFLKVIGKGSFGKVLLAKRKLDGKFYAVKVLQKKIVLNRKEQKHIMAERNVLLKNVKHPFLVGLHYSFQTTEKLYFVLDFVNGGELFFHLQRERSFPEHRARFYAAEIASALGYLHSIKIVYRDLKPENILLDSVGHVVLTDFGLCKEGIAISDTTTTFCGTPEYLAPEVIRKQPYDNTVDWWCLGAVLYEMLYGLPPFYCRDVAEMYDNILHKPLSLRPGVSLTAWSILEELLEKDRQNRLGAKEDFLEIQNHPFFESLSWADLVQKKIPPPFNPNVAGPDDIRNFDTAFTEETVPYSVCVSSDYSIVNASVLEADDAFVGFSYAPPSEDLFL

[9] = molecular target: Protein kinase C theta type (Homo sapiens) (UniProt Q04759); assay: Inhibition of human recombinant PKCt at 40 nM related to control ULK1
[10] = molecular target: Myosin light chain kinase, smooth muscle (Homo sapiens) (UniProt Q15746); assay: Inhibition of human recombinant smMLCK at 40 nM in presence of ATP by radiometric assay relative to control
[11] = molecular target: Tau-tubulin kinase 2 (Homo sapiens) (UniProt Q6IQ55); assay: Inhibition of human recombinant TTBK2 at 40 nM in presence of ATP by radiometric assay relative to control
Sequence of Tau-tubulin kinase 2 (Homo sapiens) (Q6IQ55 whole entry): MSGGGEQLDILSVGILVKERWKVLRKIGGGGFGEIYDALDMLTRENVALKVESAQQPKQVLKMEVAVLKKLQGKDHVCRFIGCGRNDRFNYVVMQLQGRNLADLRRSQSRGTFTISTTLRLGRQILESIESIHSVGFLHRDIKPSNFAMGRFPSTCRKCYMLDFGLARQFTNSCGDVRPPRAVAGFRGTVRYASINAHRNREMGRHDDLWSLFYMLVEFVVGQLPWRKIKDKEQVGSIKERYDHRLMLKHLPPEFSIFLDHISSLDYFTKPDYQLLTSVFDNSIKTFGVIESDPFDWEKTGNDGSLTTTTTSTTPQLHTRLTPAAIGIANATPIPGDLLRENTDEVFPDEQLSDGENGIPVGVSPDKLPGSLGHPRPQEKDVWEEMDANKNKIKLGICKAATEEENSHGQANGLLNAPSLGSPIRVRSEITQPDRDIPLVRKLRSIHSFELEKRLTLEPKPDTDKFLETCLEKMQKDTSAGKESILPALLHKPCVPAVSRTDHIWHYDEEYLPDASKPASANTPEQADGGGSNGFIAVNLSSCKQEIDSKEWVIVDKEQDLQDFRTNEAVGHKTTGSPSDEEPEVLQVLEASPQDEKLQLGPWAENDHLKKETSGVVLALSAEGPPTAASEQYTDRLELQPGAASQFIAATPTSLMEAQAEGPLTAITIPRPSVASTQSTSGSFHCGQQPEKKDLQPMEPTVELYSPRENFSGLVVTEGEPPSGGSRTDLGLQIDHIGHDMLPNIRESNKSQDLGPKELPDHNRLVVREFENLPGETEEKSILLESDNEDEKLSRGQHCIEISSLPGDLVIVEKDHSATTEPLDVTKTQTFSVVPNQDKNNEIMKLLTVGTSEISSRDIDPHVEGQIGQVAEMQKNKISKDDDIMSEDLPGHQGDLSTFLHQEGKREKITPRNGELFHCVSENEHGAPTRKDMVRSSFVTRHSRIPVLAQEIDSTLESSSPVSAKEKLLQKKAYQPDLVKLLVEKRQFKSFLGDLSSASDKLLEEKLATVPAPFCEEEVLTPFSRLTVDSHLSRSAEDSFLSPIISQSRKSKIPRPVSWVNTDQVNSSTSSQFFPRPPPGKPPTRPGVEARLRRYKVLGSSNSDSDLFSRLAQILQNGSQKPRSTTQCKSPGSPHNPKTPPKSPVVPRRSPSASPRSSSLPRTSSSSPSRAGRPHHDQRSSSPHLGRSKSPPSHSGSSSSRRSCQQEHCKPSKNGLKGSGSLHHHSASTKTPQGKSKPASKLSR

Sequence of Dual specificity protein kinase CLK2 (Homo sapiens) (P49760 whole entry, looked up): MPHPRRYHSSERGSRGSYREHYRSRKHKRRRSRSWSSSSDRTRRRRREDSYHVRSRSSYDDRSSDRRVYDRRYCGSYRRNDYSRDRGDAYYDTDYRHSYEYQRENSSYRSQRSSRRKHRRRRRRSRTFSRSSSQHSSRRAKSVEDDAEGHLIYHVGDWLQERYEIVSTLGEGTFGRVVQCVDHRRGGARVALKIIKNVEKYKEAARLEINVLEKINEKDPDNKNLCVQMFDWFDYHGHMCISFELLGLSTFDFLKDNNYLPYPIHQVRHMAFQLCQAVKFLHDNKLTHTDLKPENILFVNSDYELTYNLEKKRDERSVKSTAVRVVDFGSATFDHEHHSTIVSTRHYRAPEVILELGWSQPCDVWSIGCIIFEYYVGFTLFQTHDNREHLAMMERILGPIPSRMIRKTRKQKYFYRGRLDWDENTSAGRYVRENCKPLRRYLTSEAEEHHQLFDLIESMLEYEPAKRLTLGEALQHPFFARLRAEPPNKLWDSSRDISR
Sequence of Serine/threonine-protein kinase pim-2 (Homo sapiens) (Q9P1W9 whole entry, looked up): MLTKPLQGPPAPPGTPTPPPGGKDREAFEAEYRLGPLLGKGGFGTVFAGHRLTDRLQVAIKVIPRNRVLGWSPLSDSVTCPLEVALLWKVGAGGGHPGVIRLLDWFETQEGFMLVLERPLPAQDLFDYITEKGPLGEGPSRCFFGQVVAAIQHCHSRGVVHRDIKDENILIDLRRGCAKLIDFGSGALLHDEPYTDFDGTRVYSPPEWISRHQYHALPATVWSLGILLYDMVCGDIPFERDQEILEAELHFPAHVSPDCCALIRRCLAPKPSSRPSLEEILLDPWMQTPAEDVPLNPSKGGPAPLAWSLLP
Sequence of Serine/threonine-protein kinase MARK1 (Homo sapiens) (Q9P0L2 whole entry, looked up): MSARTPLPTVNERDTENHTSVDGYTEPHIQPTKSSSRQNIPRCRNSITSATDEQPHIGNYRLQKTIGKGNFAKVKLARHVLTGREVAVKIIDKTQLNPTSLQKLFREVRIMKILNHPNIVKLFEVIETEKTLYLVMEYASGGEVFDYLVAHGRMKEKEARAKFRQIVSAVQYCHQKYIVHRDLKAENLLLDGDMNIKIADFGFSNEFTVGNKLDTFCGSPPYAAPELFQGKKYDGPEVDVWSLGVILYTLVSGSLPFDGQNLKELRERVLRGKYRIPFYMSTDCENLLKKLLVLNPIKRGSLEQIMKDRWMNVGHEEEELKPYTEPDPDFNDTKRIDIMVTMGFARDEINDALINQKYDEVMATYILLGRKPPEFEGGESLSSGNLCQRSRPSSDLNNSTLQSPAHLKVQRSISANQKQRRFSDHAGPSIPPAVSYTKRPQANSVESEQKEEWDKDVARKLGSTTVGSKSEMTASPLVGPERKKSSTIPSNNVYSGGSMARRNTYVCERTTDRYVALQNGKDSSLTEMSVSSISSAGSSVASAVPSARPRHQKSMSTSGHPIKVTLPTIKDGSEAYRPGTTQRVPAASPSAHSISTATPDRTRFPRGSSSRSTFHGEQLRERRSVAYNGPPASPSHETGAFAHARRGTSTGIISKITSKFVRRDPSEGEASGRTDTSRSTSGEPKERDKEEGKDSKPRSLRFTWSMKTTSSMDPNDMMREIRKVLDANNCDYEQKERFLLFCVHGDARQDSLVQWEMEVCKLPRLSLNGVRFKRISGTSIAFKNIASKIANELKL
Sequence of Protein kinase C theta type (Homo sapiens) (Q04759 whole entry, looked up): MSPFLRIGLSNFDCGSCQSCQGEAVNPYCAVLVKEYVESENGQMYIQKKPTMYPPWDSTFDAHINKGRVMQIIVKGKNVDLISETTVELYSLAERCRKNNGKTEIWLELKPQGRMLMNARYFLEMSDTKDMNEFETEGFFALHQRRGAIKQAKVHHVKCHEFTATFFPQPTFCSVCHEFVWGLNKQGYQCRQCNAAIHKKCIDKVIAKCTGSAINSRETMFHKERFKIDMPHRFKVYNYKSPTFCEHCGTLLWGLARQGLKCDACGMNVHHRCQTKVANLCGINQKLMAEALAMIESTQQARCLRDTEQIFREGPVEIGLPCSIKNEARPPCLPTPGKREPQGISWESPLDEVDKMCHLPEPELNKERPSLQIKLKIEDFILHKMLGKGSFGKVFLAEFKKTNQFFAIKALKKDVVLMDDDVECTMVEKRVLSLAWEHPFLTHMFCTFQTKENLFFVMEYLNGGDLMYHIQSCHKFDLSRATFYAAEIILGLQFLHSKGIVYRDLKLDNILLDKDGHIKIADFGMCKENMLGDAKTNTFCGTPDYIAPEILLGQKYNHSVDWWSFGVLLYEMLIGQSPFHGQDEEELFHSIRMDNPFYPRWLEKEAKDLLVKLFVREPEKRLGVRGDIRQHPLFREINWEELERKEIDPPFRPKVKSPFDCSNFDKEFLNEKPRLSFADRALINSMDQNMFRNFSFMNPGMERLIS
Sequence of Cyclin-dependent kinase 7 (Homo sapiens) (P50613 whole entry): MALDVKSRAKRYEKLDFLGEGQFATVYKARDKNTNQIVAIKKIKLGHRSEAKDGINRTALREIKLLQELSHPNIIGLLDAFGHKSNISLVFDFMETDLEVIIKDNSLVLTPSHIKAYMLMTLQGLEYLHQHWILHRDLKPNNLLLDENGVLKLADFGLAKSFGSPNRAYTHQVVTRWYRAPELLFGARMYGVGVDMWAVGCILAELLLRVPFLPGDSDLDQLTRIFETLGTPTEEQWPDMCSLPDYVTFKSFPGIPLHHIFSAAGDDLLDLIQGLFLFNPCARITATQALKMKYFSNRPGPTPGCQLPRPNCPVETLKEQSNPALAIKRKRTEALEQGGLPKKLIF
Sequence of Calcium/calmodulin-dependent protein kinase kinase 2 (Homo sapiens) (Q96RR4 2-588 limits assumed): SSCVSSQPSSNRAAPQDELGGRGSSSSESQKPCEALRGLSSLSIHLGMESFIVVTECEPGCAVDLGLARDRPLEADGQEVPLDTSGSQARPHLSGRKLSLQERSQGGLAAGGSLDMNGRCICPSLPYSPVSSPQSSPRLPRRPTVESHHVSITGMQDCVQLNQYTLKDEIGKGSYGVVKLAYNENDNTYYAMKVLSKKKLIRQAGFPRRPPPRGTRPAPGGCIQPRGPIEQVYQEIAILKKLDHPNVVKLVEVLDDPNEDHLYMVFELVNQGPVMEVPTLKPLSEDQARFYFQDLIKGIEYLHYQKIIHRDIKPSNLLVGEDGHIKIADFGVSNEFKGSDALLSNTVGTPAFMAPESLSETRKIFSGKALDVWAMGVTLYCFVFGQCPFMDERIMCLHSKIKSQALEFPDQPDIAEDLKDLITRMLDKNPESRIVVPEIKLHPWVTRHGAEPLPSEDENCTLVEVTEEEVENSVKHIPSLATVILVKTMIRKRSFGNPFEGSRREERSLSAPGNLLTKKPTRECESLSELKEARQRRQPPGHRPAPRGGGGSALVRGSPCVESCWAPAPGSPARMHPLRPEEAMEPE

inhibition [1]: 29%
fold change (FC) [2]: 0.73
inhibition (Homo sapiens): 0%
inhibition [3]: 4%
SMILES: CNC(=O)c1ccccc1Oc1nc(Nc2cc(OC)c(OC)c(OC)c2)ncc1Br

fold change (FC) [4]: 0
fold change (FC) [5]: 0.33
inhibition [6]: 12%
inhibition [7]: 75%
SMILES: CC(C)[C@H](NC(=O)c1cc(-c2cnn3cc(-c4ccc(OCCN5CCCCC5)cc4)cnc23)cs1)C(F)(F)F

fold change (FC) [8]: 0
fold change (FC) [9]: 0
inhibition [10]: 5%
inhibition [11]: 0%
SMILES: O=C(N[C@@H](C1CC1)C(F)(F)F)c1cc(-c2cnn3cc(-c4ccc(F)cc4)cnc23)cs1
